Measurements: patent US11446298B2, “Pyrimidine derivatives” (Idorsia Pharmaceuticals Ltd, priority 2017, dated 2022)

How the values were obtained:
Format in all cases: cell-based
EP4 = molecular target: T1, EP4 (Homo sapiens, UniProt P35408); experiment: hEP4 cAMP Assay (BT549 breast cancer cells, HTRF cAMP, PGE2 6 nM); settings: antagonistic activity, PGE2 6 nM (EC80)
T1 construct: BT549 breast cancer cells, express high endogenous EP4 levels and very low EP2 levels; host or cells: BT549 breast cancer cells
T1 sequence (P35408 whole entry): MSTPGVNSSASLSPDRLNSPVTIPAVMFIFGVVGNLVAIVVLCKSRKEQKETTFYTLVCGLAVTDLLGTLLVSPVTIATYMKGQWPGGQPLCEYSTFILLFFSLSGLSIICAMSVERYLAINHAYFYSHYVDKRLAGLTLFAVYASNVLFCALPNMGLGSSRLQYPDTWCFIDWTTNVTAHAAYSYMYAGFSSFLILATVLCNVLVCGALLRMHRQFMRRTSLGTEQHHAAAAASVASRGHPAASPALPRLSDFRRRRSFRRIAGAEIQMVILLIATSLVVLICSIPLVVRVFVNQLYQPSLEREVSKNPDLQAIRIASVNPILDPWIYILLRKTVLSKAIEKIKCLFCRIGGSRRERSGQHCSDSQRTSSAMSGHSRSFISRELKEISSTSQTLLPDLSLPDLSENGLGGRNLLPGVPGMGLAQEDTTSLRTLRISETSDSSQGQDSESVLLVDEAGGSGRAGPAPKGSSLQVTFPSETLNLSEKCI
Method: (§1) The antagonistic activities of the compounds of formula (I) on the EP2 and EP4 receptors are also determined in accordance with the following experimental method.
(§2) Human tumor cell lines expressing endogenously either EP4 or EP2 are used and cAMP accumulation in cells upon PGE2 stimulation is monitored. SF295 glioblastoma cells express high endogenous EP2 and no EP4, whereas BT549 breast cancer cells, express high endogenous EP4 levels and very low EP2 levels.
(§3) As a detection method for cAMP the HTRF (homogeneous time resolved fluorescence) Cisbio kit (HTRF cAMP dynamic 2 kit 20′000 tests Cisbio Cat. #62AM4PEC) was used, which is based on a competitive immunoassay using a Cryptate-labeled anti-cAMP antibody and d2-labeled cAMP. Native cAMP produced by cells or unlabeled cAMP (for the standard curve) compete with exogenously added d2-labeled cAMP (acceptor) for binding to monoclonal anti-cAMP-Eu3+Cryptate (donor). A FRET signal (Fluorescence Resonance Energy Transfer) is obtained only if the labeled anti-cAMP antibody binds the d2 labelled cAMP, thus the specific signal (i.e. energy transfer) is inversely proportional to the concentration of cAMP in the standard or sample.
(§4) The BT549 cells (NCI/No. 0507282) are detached from culture dishes with a cell dissociation buffer (Invitrogen, 13151-014), and collected in growing medium (GM: RPMI1640 (Invitrogen 21875)/10% FCS, 1% Penicilin/streptomycin). Cells are counted washed and resuspended in assay buffer (AB; HBSS, 20 mM HEPES, 0.2% BSA; 2 mM IBMX). 4′000 cells in 5 μL of AB are seeded per well of a small volume 384 well plate (black with flat bottom, Greiner 784076).
(§5) Stock solutions of test compounds are made at a concentration of 10 mM in DMSO, and serially diluted in DMSO to concentrations required for inhibition dose response curves (tested concentration range 30 μM-0.4 nM; 30 μM-0.015 nM or 1 μM-0.01 nM).
PGE2 (Cayman 14010, stock solution: 6 uM in DMSO) is used as agonist at 6 nM final concentration, corresponding to EC80.
(§6) 2.5 μL of diluted compounds are transferred into the assay plate. Plate is pre-incubated 45 minutes at room temperature. Subsequently, 2.5 μL of PGE2 (final conc. 6 nM) are transferred into the assay plate. Plate is incubated 30 minutes at room temperature. 5 μL of each donor (anti-cAMP cryptate) and acceptor (cAMP-d2) are added and the plate is incubated another hour at room temperature in the dark and then read using a BMG LABTECH PHERAstar reader (Excitation: 337 nm, Emission: 620 and 665 nm).
(§7) The obtained Delta F (fluorescence) values (665 nm/620 nM) are converted into % cAMP values using the measurements of the cAMP calibrator provided in the kit. For each compound concentration the percentage of cAMP compared to DMSO control value as average ±STDEV (each concentration is measured in duplicate) is calculated.
(§8) IC50 values and curves are generated with XLfit software (IDBS) using Dose-Response One Site model 203. When compounds were measured multiple times, mean values are given.

EP2 = molecular target: T2, EP2 (Homo sapiens, UniProt P43116); experiment: hEP2 cAMP Assay (SF295 glioblastoma cells, HTRF cAMP, PGE2 75 nM); settings: antagonistic activity, PGE2 75 nM (EC80)
T2 construct: SF295 glioblastoma cells express high endogenous EP2 and no EP4; host or cells: SF295 glioblastoma cells
T2 sequence (P43116 whole entry): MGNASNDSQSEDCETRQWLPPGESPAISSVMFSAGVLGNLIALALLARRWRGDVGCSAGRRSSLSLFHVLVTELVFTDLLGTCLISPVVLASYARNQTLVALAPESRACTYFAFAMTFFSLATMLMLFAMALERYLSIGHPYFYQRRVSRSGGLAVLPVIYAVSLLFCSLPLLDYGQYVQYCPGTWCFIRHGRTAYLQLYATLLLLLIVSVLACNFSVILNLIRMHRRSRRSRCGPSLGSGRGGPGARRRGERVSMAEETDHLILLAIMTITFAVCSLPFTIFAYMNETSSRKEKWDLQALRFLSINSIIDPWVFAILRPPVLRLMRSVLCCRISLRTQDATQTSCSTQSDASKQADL
Method: as §1, §2, §3
as §4, with “SF295” for “BT549”, “0503170)” for “0507282)”, “RPM11640” for “RPMI1640”
as §5
PGE2 (Cayman 14010, stock solution: 75 μM in DMSO) is used as agonist at 75 nM final concentration, corresponding to EC80.
as §6, with “conc. 75” for “conc. 6”, “temperature. Five” for “temperature. 5”
as §7, §8

PTGER2 (EP2) = molecular target: T3, PTGER2 (EP2) (Homo sapiens, UniProt P43116); experiment: hEP2 b-Arrestin Assay (PathHunter HEK 293 PTGER2 b-arrestin cells, PGE2 5 μM); settings: antagonistic activity, beta-arrestin assay, HEK 293 PTGER2 cells, PGE2 5 μM (EC80); read-out: hEP2 b-arr IC50
T3 construct: host or cells: HEK 293 (PathHunter, stably transfected)
T3 sequence (P43116 whole entry): as above
Method: as §1
The assay is using the PathHunter™ HEK 293 PTGER2 and PTGER4 b-arrestin cell lines from DiscoverX. The system is based on the Enzyme Fragment Complementation Technology. Two complementing fragments of the b-galactosidase enzyme are expressed within stably transfected cells. The larger portion of b-gal, termed EA for Enzyme Acceptor, is fused to the C-terminus of b-arrestin 2. The smaller fragment, termed ProLink™ tag, is fused to PTGER2 (EP2) or PTRGER4 (EP4) at the C-terminus. Upon activation, b-arrestin is recruited which forces the interaction of ProLink and EA, allowing complementation of the two fragments of b-gal and the formation of a functional enzyme which is capable of hydrolysing the substrate and generating a chemiluminescent signal.
The HEK 293 PTGER2 b-arrestin cells (DiscoverX 93-021-4C1) are detached from culture dishes with a cell dissociation buffer (Invitrogen, 13151-014), and collected in growing medium (GM: DMEM+Glutamax-I (Invitrogen 32430)/10% FCS, 1% Penicilin/streptomycin). 5000 cells per well of a 384 well plate (white with white bottom Greiner 781080) are seeded in 20 μl per well of GM. Plate is incubated at 37° C., 5% CO2 for 24 hours.
Stock solutions of test compounds are made at a concentration of 10 mM in DMSO, and serially diluted in DMSO to concentrations required for inhibition dose response curves (tested concentration range 10 μM-2 nM or 1 μM-0.2 nM).
PGE2 (Cayman 14010, stock solution: 10 mM in DMSO) is used as agonist at 5 μM final concentration, corresponding to EC80.
Five microliters of diluted compounds are transferred into the assay plate. Plate is pre-incubated 15 minutes at 37° C. Then five microliters of PGE2 (final conc. 5 μM) are transferred into the assay plate. Plate is incubated 120 minutes at 37° C.
PathHunter Glo Detection Kit components are thawed and mix according to manufacturer's instructions: 1 part Galacton Star Substrate with 5 parts Emerald II™ Solution, and 19 parts of PathHunter Cell Assay Buffer, respectively. Twelve μl of reagent are transferred to the assay plate and incubate for 1 hour at room temperature in the dark. Luminescence counts are read on a BMG Fluostar Optima reader according to manufacturer's instructions.
For each compound concentration calculate of the percentage of activity compared to DMSO control value as average ±STDEV. (each concentration is measured in duplicate)
as §8

CCOc1cc(-c2cc(NCCc3cccc4cc(C)n(C)c34)ncn2)sc1C(=O)O [Example 56, 5-{6-[2-(1,2-Dimethyl-1H-indol-7-yl)-ethylamino]-pyrimidin-4-yl}-3-ethoxy-thiophene-2-carboxylic acid]
IC50 (EP4): 0.292 µM
IC50 (EP2): 0.052 µM
IC50 (PTGER2 (EP2)): 0.053 µM

CCOc1cc(-c2cc(NCCc3c(C)ccc4ccccc34)ncn2)ccc1OCC(=O)O [Example 48, (2-Ethoxy-4-{6-[2-(2-methyl-naphthalen-1-yl)-ethylamino]-pyrimidin-4-yl}-phenoxy)-acetic acid]
IC50 (EP4): 0.729 µM
IC50 (EP2): 0.147 µM
IC50 (PTGER2 (EP2)): 0.022 µM

CCOc1cc(-c2cc(NCCc3c(F)ccc4ccccc34)ncn2)ccc1CC(=O)O [Example 97, (2-Ethoxy-4-{6-[2-(2-fluoro-naphthalen-1-yl)-ethylamino]-pyrimidin-4-yl}-phenyl)-acetic acid]
IC50 (EP4): 0.355 µM
IC50 (EP2): 0.218 µM
IC50 (PTGER2 (EP2)): 0.132 µM

CCOc1cc(-c2cc(NCCc3c(C(F)F)ccc4ccccc34)ncn2)sc1C(=O)O [Example 70, 5-{6-[2-(2-Difluoromethyl-naphthalen-1-yl)-ethylamino]-pyrimidin-4-yl}-3-ethoxy-thiophene-2-carboxylic acid]
IC50 (EP4): 0.368 µM
IC50 (EP2): 0.163 µM
IC50 (PTGER2 (EP2)): 0.078 µM

CCOc1cc(-c2cc(NCCc3c(OC)ccc4ccccc34)ncn2)sc1CC(=O)O [Example 132, (3-Ethoxy-5-{6-[2-(2-methoxy-naphthalen-1-yl)-ethylamino]-pyrimidin-4-yl}-thiophen-2-yl)-acetic acid]
IC50 (EP4): 0.381 µM
IC50 (EP2): 0.049 µM
IC50 (PTGER2 (EP2)): 0.061 µM

CCOc1cc(-c2cc(NCCc3c(OC)ccc4ncccc34)ncn2)sc1C(=N)NO [Example 146, 3-Ethoxy-N-hydroxy-5-{6-[2-(6-methoxy-quinolin-5-yl)-ethylamino]-pyrimidin-4-yl}-thiophene-2-carboxamidine]
IC50 (EP4): 0.405 µM
IC50 (EP2): 0.119 µM
IC50 (PTGER2 (EP2)): 0.066 µM

COc1ccc2ncccc2c1CCNc1cc(-c2ccc(C(=O)O)c(OC3CCC3)c2)ncn1 [Example 64, 2-Cyclobutoxy-4-{6-[2-(6-methoxy-quinolin-5-yl)-ethylamino]-pyrimidin-4-yl}-benzoic acid]
IC50 (EP4): 0.872 µM
IC50 (EP2): 0.08 µM
IC50 (PTGER2 (EP2)): 0.106 µM

CCOc1cc(-c2cc(NCCc3ccc(F)c4ccccc34)ncn2)ccc1C(=O)O [Example 19, 2-Ethoxy-4-{6-[2-(4-fluoro-naphthalen-1-yl)-ethylamino]-pyrimidin-4-yl}-benzoic acid]
IC50 (EP4): 0.646 µM
IC50 (EP2): 0.093 µM
IC50 (PTGER2 (EP2)): 0.129 µM

CCOc1cc(-c2cc(NCCc3ccc(Cl)c4ccccc34)ncn2)ccc1OCC(=O)O [Example 63, (4-{6-[2-(4-Chloro-naphthalen-1-yl)-ethylamino]-pyrimidin-4-yl}-2-ethoxy-phenoxy)-acetic acid]
IC50 (EP4): 0.3 µM
IC50 (EP2): 0.239 µM
IC50 (PTGER2 (EP2)): 0.099 µM

CCOc1cc(-c2cc(NCCc3cccc4cc(C)[nH]c34)ncn2)sc1C(=O)O [Example 37, 3-Ethoxy-5-{6-[2-(2-methyl-1H-indol-7-yl)-ethylamino]-pyrimidin-4-yl}-thiophene-2-carboxylic acid]
IC50 (EP4): 0.596 µM
IC50 (EP2): 0.053 µM
IC50 (PTGER2 (EP2)): 0.126 µM

CCOc1cc(-c2cc(NCCc3c(OC)ccc4ccccc34)ncn2)ccc1C(=O)O [Example 3, 2-Ethoxy-4-{6-[2-(2-methoxy-naphthalen-1-yl)-ethylamino]-pyrimidin-4-yl}-benzoic acid]
IC50 (EP4): 0.292 µM
IC50 (EP2): 0.011 µM
IC50 (PTGER2 (EP2)): 0.017 µM

CCOc1cc(-c2cc(NCCc3cccc4c3ccn4C)ncn2)ccc1OCC(=O)O [Example 49, (2-Ethoxy-4-{6-[2-(1-methyl-1H-indol-4-yl)-ethylamino]-pyrimidin-4-yl}-phenoxy)-acetic acid]
IC50 (EP4): 0.458 µM
IC50 (EP2): 0.16 µM
IC50 (PTGER2 (EP2)): 0.108 µM

COc1ccc2ccccc2c1CCNc1cc(-c2cc3ccc(C(=O)O)cc3[nH]2)ncn1 [Example 127, 2-{6-[2-(2-Methoxy-naphthalen-1-yl)-ethylamino]-pyrimidin-4-yl}-1H-indole-6-carboxylic acid]
IC50 (EP4): 0.416 µM
IC50 (EP2): 0.02 µM
IC50 (PTGER2 (EP2)): 0.009 µM

CCOc1cc(-c2cc(NCCc3c(OC)ccc4ncccc34)ncn2)ccc1OCC(=O)O [Example 66, (2-Ethoxy-4-{6-[2-(6-methoxy-quinolin-5-yl)-ethylamino]-pyrimidin-4-yl}-phenoxy)-acetic acid]
IC50 (EP4): 0.714 µM
IC50 (EP2): 0.227 µM
IC50 (PTGER2 (EP2)): 0.35 µM

CCOc1cc(-c2cc(NCCc3c(C)ccc4cnccc34)ncn2)ccc1OCC(=O)O [Example 86, (2-Ethoxy-4-{6-[2-(6-methyl-isoquinolin-5-yl)-ethylamino]-pyrimidin-4-yl}-phenoxy)-acetic acid]
IC50 (EP4): 0.674 µM
IC50 (EP2): 0.077 µM
IC50 (PTGER2 (EP2)): 0.177 µM

Cc1ccc(CCNc2cc(-c3ccc(C(=O)O)c(OC4CCC4)c3)ncn2)c2ccccc12 [Example 17, 2-Cyclobutoxy-4-{6-[2-(4-methyl-naphthalen-1-yl)-ethylamino]-pyrimidin-4-yl}-benzoic acid]
IC50 (EP4): 0.27 µM
IC50 (EP2): 0.281 µM
IC50 (PTGER2 (EP2)): 0.095 µM
